Data on two molecules can be found in US5929112A, “Derivatives of N,N'-di (carboxyalkyl) alkylene di-or triamine” (L'Oreal, priority 1995, dated 1999).

Structures are written as SMILES. Structures can show the parent of a compound that is named as a salt.

This series is described as follows: Comparative solubility tests in 50 mM acetate buffer pH 5.8. As to conditions: aqueous buffer. It counts as physicochemical. From the text:
COMPARATIVE SOLUBILITY TESTS

As usually defined, the solubility is how much of the substance goes into solution per volume. Molecule `COc1cc(CN(CC(=O)O)CC(C)N(CC(=O)O)Cc2cc(OC)c(OC)c(OC)c2)cc(OC)c1OC` (centres unmarked) [Example 1, N,N'-bis-(3,4,5-trimethoxybenzyl)-2-methyl ethylenediamine diacetic acid] came in with a solubility of over 100 mg/mL.

Molecule `COc1cc(CN(CCN(CC(=O)O)Cc2cc(OC)c(OC)c(OC)c2)CC(=O)O)cc(OC)c1OC` [N,N'-bis-(3,4,5-trimethoxybenzyl) ethylenediamine-N,N'-diacetic acid, 2 HCl] displayed a solubility of under 5 mg/mL.
